In patent publication US8598154B2 (Corcept Therapeutics, Inc., priority 2010, dated 2013):

Legend:
[1] = biological target: T1, glucocorticoid receptors (GR) in SW1353/MMTV-5 cells (Homo sapiens, UniProt P04150); assay: GR functional assay using SW1353/MMTV-5 cells (MMTV-luciferase reporter); assay type: cell-based
T1 construct: contains endogenous glucocorticoid receptors; endogenous in cells; host or cells: SW1353/MMTV-5 (human chondrosarcoma, stably transfected with the pMAMneo-Luc reporter only)
T1 sequence (P04150 1-777): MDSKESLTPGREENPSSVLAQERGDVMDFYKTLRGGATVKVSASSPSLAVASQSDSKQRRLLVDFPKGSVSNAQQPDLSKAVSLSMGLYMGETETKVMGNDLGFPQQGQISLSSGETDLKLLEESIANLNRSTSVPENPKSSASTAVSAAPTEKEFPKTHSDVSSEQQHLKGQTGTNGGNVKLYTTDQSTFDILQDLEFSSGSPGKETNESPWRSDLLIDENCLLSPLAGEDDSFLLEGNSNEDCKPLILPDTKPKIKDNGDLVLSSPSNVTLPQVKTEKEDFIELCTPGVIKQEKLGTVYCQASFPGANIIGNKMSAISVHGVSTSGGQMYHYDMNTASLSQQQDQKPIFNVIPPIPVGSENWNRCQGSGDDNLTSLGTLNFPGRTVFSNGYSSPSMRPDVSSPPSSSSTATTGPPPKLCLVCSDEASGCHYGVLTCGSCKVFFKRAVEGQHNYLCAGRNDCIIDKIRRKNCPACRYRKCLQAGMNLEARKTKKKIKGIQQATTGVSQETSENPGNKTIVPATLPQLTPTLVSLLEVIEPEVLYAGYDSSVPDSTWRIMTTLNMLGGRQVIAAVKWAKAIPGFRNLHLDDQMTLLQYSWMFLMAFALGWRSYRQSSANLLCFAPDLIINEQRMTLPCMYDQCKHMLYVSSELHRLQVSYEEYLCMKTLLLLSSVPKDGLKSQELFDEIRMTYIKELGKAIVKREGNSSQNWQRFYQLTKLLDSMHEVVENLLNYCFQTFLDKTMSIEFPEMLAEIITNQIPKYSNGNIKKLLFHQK
Outline: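 Human chondrosarcoma line stably carrying firefly luciferase under an MMTV LTR glucocorticoid-responsive element, with endogenous GR. Cells were plated in 96-well plates and held 24 hrs in geneticin-free medium without CO2.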

[2] = biological target: T2, Human Recombinant Glucocorticoid Receptor (Homo sapiens, UniProt P04150); assay: Glucocorticoid receptor binding displacement assay with 3H-dexamethasone; conditions: displacement of 2.5 nM 3H-dexamethasone; Ki from IC50 by Cheng-Prusoff; read-out: GR Binding Ki
T2 construct: This GR was a full-length steroid hormone receptor likely to be associated with heat-shock and other endogenous proteins; host or cells: baculovirus-infected insect cells
T2 sequence (P04150 1-777): T1 sequence (P04150 1-777)

SMILES | Ki [1] [nM] | Ki [2] [nM]
COC[C@]12Cc3cnn(-c4ccc(F)cc4)c3C=C1CCN(S(=O)(=O)c1cncc(N3CC(O)C3)c1)C2 [Example 36, 1-{5-[(R)-1-(4-Fluorophenyl)-4a-methoxymethyl-1,4,4a,5,6,7,8-hexahydro-1,2,6-triaza-cyclopenta[b]naphthalene-6-sulfonyl]-pyridin-3-yl}-azetidin-3-ol] | > 50 | 0.5 to 1
COC[C@]12Cc3cnn(-c4ccc(F)cc4)c3C=C1CCN(S(=O)(=O)c1cncc(N3CC(F)C3)c1)C2 [Example 37, (R)-6-[5-(3-Fluoroazetidin-1-yl)-pyridine-3-sulfonyl]-1-(4-fluorophenyl)-4a-methoxymethyl-4,4a,5,6,7,8-hexahydro-1H-1,2,6-triaza-cyclopenta[b]naphthalene] | < 10 | 0.5 to 1
COC[C@]12Cc3cnn(-c4ccc(F)cc4)c3C=C1CCN(S(=O)(=O)c1cncc(N3CC[C@@H](O)C3)c1)C2 [Example 38, (R)-1-{5-[(R)-1-(4-Fluorophenyl)-4a-methoxymethyl-1,4,4a,5,6,7,8-hexahydro-1,2,6-triaza-cyclopenta[b]naphthalene-6-sulfonyl]pyridine-3-yl}-pyrrolidine-3-ol] | 10 to 50 | 0.5 to 1
COC[C@]12Cc3cnn(-c4ccc(F)cc4)c3C=C1CCN(S(=O)(=O)c1cncc(N3CC[C@H](O)C3)c1)C2 [Example 39, (S)-1-{5-[(R)-1-(4-Fluorophenyl)-4a-methoxymethyl-1,4,4a,5,6,7,8-hexahydro-1,2,6-triaza-cyclopenta[b]naphthalene-6-sulfonyl]pyridine-3-yl}-pyrrolidine-3-ol] | > 50 | 0.5 to 1
COC[C@]12Cc3cnn(-c4ccc(F)cc4)c3C=C1CCN(S(=O)(=O)c1cncc(N3CC[C@@H](F)C3)c1)C2 [Example 40, (R)-1-(4-Fluorophenyl)-6-[5-((R)-3-fluoropyrrolidin-1-yl)-pyridine-3-sulfonyl]-4a-methoxymethyl-4,4a,5,6,7,8-hexahydro-1H-1,2,6-triaza-cyclopenta[b]naphthalene] | < 10 | > 1
COC[C@]12Cc3cnn(-c4ccc(F)cc4)c3C=C1CCN(S(=O)(=O)c1cncc(N3CC[C@H](F)C3)c1)C2 [Example 41, (R)-1-(4-Fluorophenyl)-6-[5-((S)-3-fluoropyrrolidin-1-yl)-pyridine-3-sulfonyl]-4a-methoxymethyl-4,4a,5,6,7,8-hexahydro-1H-1,2,6-triaza-cyclopenta[b]naphthalene] | < 10 | 0.5 to 1
COC[C@]12Cc3cnn(-c4ccc(F)cc4)c3C=C1CCN(S(=O)(=O)c1ccnc(N3CCCC3)c1)C2 [Example 42, (R)-1-(4-Fluorophenyl)-4a-methoxymethyl-6-(2-pyrrolidin-1-yl-pyridine-4-sulfonyl)-4,4a,5,6,7,8-hexahydro-1H-1,2,6-triaza-cyclopenta[b]naphthalene] | < 10 | > 1
COC[C@]12Cc3cnn(-c4ccc(F)cc4)c3C=C1CCN(S(=O)(=O)c1ccnc(N3CC[C@@H](O)C3)c1)C2 [Example 43, (R)-1-{4-[(R)-1-(4-Fluorophenyl)-4a-methoxymethyl-1,4,4a,5,6,7,8-hexahydro-1,2,6-triaza-cyclopenta[b]naphthalene-6-sulfonyl]-pyridin-2-yl}-pyrrolidin-3-ol] | > 50 | > 1
COC[C@]12Cc3cnn(-c4ccc(F)cc4)c3C=C1CCN(S(=O)(=O)c1ccnc(N3CC[C@H](O)C3)c1)C2 [Example 44, (S)-1-{4-[(R)-1-(4-Fluorophenyl)-4a-methoxymethyl-1,4,4a,5,6,7,8-hexahydro-1,2,6-triaza-cyclopenta[b]naphthalene-6-sulfonyl]-pyridin-2-yl}-pyrrolidin-3-ol] | > 50 | > 1
CN(CCO)C[C@]12Cc3cnn(-c4ccc(F)cc4)c3C=C1CCN(S(=O)(=O)c1ccc(N3CCOCC3)nc1)C2 [Example 45, 2-{[(S)-1-(4-Fluorophenyl)-6-[6-morpholin-4-yl-pyridine-3-sulfonyl)-1,4,5,6,7,8-hexahydro-1,2,6-triaza-cyclopenta[b]naphthalene-4a-ylmethyl]-methyl-amino}-ethanol] | 10 to 50 | > 1
O=S(=O)(c1ccc(N2CC[C@@H](F)C2)nc1)N1CCC2=Cc3c(cnn3-c3ccc(F)cc3)C[C@]2(CN2CC[C@H](O)C2)C1 [Example 47, (S)-1-{(S)-1-(4-Fluorophenyl)-6-[6-((R)-3-fluoro-pyrrolidin-1-yl)-pyridine-3-sulfonyl]-1,4,5,6,7,8-hexahydro-1,2,6-triaza-cyclopenta[b]naphthalene-4a-ylmethyl}-pyrrolidin-3-ol] | > 50 | > 1
CCOC(=O)[C@]12Cc3cnn(-c4ccc(F)cc4)c3C=C1CCN(S(=O)(=O)c1ccc(N3CCOCC3)nc1)C2 [Example 48, (R)-1-(4-Fluorophenyl)-6-(6-morpholin-4-yl-pyridine-3-sulfonyl]-1,4,5,6,7,8-hexahydro-1,2,6-triaza-cyclopenta[b]naphthalene-4a-carboxylic acid ethyl ester] | 10 to 50 | 0.5 to 1
CC(C)OC(=O)[C@]12Cc3cnn(-c4ccc(F)cc4)c3C=C1CCN(S(=O)(=O)c1ccc(N3CCOCC3)nc1)C2 [Example 49, (R)-1-(4-Fluorophenyl)-6-(6-morpholin-4-yl-pyridine-3-sulfonyl]-1,4,5,6,7,8-hexahydro-1,2,6-triaza-cyclopenta[b]naphthalene-4a-carboxylic acid isopropyl ester] | 10 to 50 | < 0.5
O=C(OC1CCC1)[C@]12Cc3cnn(-c4ccc(F)cc4)c3C=C1CCN(S(=O)(=O)c1ccc(N3CCOCC3)nc1)C2 [Example 50, (R)-1-(4-Fluorophenyl)-6-(6-morpholin-4-yl-pyridine-3-sulfonyl]-1,4,5,6,7,8-hexahydro-1,2,6-triaza-cyclopenta[b]naphthalene-4a-carboxylic acid cyclobutyl ester] | < 10 | 0.5 to 1
O=C(OCC1CC1)[C@]12Cc3cnn(-c4ccc(F)cc4)c3C=C1CCN(S(=O)(=O)c1ccc(N3CCOCC3)nc1)C2 [Example 51, (R)-1-(4-Fluorophenyl)-6-(6-morpholin-4-yl-pyridine-3-sulfonyl]-1,4,5,6,7,8-hexahydro-1,2,6-triaza-cyclopenta[b]naphthalene-4a-carboxylic acid cyclopropylmethyl ester] | < 10 | 0.5 to 1
O=C(OCC1CCC1)[C@]12Cc3cnn(-c4ccc(F)cc4)c3C=C1CCN(S(=O)(=O)c1ccc(N3CCOCC3)nc1)C2 [Example 52, (R)-1-(4-Fluorophenyl)-6-(6-morpholin-4-yl-pyridine-3-sulfonyl]-1,4,5,6,7,8-hexahydro-1,2,6-triaza-cyclopenta[b]naphthalene-4a-carboxylic acid cyclobutylmethyl ester] | < 10 | 0.5 to 1
O=C(OCC1CC(O)C1)[C@]12Cc3cnn(-c4ccc(F)cc4)c3C=C1CCN(S(=O)(=O)c1ccc(N3CCOCC3)nc1)C2 (stereo partly drawn) [Example 53, (R)-1-(4-Fluorophenyl)-6-(6-morpholin-4-yl-pyridine-3-sulfonyl]-1,4,5,6,7,8-hexahydro-1,2,6-triaza-cyclopenta[b]naphthalene-4a-carboxylic acid 3-hydroxycyclobutylmethyl ester] | 10 to 50 | > 1
CC1(COC(=O)[C@]23Cc4cnn(-c5ccc(F)cc5)c4C=C2CCN(S(=O)(=O)c2ccc(N4CCOCC4)nc2)C3)COC1 [Example 54, (R)-1-(4-Fluorophenyl)-6-(6-morpholin-4-yl-pyridine-3-sulfonyl]-1,4,5,6,7,8-hexahydro-1,2,6-triaza-cyclopenta[b]naphthalene-4a-carboxylic acid 3-methyloxetan-3-ylmethyl ester] | > 50 | > 1
O=C(OCCO)[C@]12Cc3cnn(-c4ccc(F)cc4)c3C=C1CCN(S(=O)(=O)c1ccc(N3CCOCC3)nc1)C2 [Example 55, (R)-1-(4-Fluorophenyl)-6-(6-morpholin-4-yl-pyridine-3-sulfonyl]-1,4,5,6,7,8-hexahydro-1,2,6-triaza-cyclopenta[b]naphthalene-4a-carboxylic acid 2-hydroxethyl ester] | > 50 | > 1
CN(C)CCOC(=O)[C@]12Cc3cnn(-c4ccc(F)cc4)c3C=C1CCN(S(=O)(=O)c1ccc(N3CCOCC3)nc1)C2 [Example 56, (R)-1-(4-Fluorophenyl)-6-(6-morpholin-4-yl-pyridine-3-sulfonyl]-1,4,5,6,7,8-hexahydro-1,2,6-triaza-cyclopenta[b]naphthalene-4a-carboxylic acid 2-dimethylaminoethyl ester] | > 50 | > 1
